From PMC6158189, “A pharmacological probe identifies cystathionine β-synthase as a new negative regulator for ferroptosis” (Cell Death & Disease, 2018) come the findings set out here.

Entries after “also recorded” stand apart in the source; their conditions may differ.

One series has as its system HepG2 cells. Description: cell viability (CellTiter 96 Aqueous One). Format: cell-based, human. Particulars: 24 h. How it is done:
Fig. 4 CH004 arrests the cell cycle at the S phase. a CH004 reduces the cell viability of HEK293T and HepG2 cells. HEK293T or HepG2 cells were treated with indicated concentrations of CH004 for 24 h before the cell number was analyzed using the CellTiter96® Aqueous One Solution Cell Proliferation Assay (Promega, Materials and Methods). The means at each concentration of one representative experiment are shown as percentages of DMSO (control, 100%). Means ± SDs (n = 3). b Overexpression of hCBS or knock-down of hCBS counteracts the growth inhibition exerted by CH004 in HEK293T cells. Indicated HEK293T stable cell lines were treated with the CH004 or DMSO for 24 h. Then, the cell viability was quantified with the CellTiter 96® Aqueous One Solution Cell Proliferation Assay under the standard protocol (Promega). The means at each concentration are shown as percentages of their respective DMSO controls (100%). Means ± SDs (n = 3). The efficacy for CBS overexpression and knock-down in HEK293T cells was determined by Western blotting using an anti-CBS antibody (3E1, 1:2000; Abnova). c CH004 induces cell death in HEK293T and HepG2 cells. […] The means of percentages of dead cells (DMSO, 100%) from three independent samples are shown in d. Means ± SDs (n = 3). e, f Pharmacological inhibition or genetic knock-down of hCBS in HEK293T cells arrests the cell cycle at S phase. HEK293T cells were incubated with indicated compounds for 12 h, and the DNA content was quantified with propidium iodide to analyze the cell cycle distribution by flow cytometry (e). The cell cycle distributions for HEK293T-shNT and HEK293T-shCBS cells were accordingly analyzed and are shown in f. One representative diagram is shown for each condition. The mean percentages of various cell phases from three independent samples are shown in the respective right panels. Means ± SDs (n = 3). […]
Figure S15. […] Indicated HEK293T stable cell lines were treated with CH004 at a concentration of 10 µM for 24 h, and the cell viability was then measured using the CellTiter96® Aqueous One Solution Cell Proliferation Assay (Promega). […]

Another series deals with HEK293T cells. In words: cell death, FITC Annexin V kit, flow cytometry. Particulars: 40 μM, 12 h. Format: cell-based. How it is done:
Fig. 4 CH004 arrests the cell cycle at the S phase. a CH004 reduces the cell viability of HEK293T and HepG2 cells. HEK293T or HepG2 cells were treated with indicated concentrations of CH004 for 24 h before the cell number was analyzed using the CellTiter96® Aqueous One Solution Cell Proliferation Assay (Promega, Materials and Methods). The means at each concentration of one representative experiment are shown as percentages of DMSO (control, 100%). Means ± SDs (n = 3). b Overexpression of hCBS or knock-down of hCBS counteracts the growth inhibition exerted by CH004 in HEK293T cells. Indicated HEK293T stable cell lines were treated with the CH004 or DMSO for 24 h. Then, the cell viability was quantified with the CellTiter 96® Aqueous One Solution Cell Proliferation Assay under the standard protocol (Promega). […] The efficacy for CBS overexpression and knock-down in HEK293T cells was determined by Western blotting using an anti-CBS antibody (3E1, 1:2000; Abnova). c CH004 induces cell death in HEK293T and HepG2 cells. […] HEK293T cells were incubated with indicated compounds for 12 h, and the DNA content was quantified with propidium iodide to analyze the cell cycle distribution by flow cytometry (e). The cell cycle distributions for HEK293T-shNT and HEK293T-shCBS cells were accordingly analyzed and are shown in f. […]
For orientation: In flow cytometry, cells or beads pass a laser one at a time.

Series [1] has as its system H22 mouse liver tumor cells in ICR mice. Particulars: 10 mg/kg/day i.v. How it is done: Fig. 7 CH004 suppresses tumor growth in vivo. a–c CH004 reduces the growth rate of tumors in liver tumor xenograft mice model. Mice bearing liver tumor xenografts were treated with CH004 (10 mg/kg/d), cyclophophamide (CTX, 20 mg/kg/d) or PBS (Vehicle) for 21 days. The tumor volumes were measured every two days during day 6 to day 22 and the data was presented in a (n = 8). […] Mice body weight was measured along with the measurement of tumor volume (n = 8). Means ± SDS. Statistical analyses were performed on the raw data by one-way (c) or two-way ANOVA (a) with Bonferroni post-tests. The significance of the CH004-treated group compared to Vehicle was indicated with $ (a), whereas the comparison of the CTX group to Vehicle was with # (a). $, # or ***p < 0.001
The in vivo effect of CH004 on tumor growth was evaluated in a xenograft mice model of liver cancer. The experiment was independently performed by Jiangsu KeyGEN BioTECH Co. LTD (Jiangsu, China) and followed the standard procedures that were established and approved by the local Animal Care and Use Committee. Briefly, H22 mouse liver tumor cells were intraperitoneal injected into female ICR mice (SLAC Laboratory Animal Co. Ltd, Shanghai, China). 8 days later, mice with distended abdomen were killed, and the ascites was collected, washed and resuspended with PBS. 0.1 ml cell suspension with a density of 1 × 10^7/ml was subcutaneously injected into the right dorsum of ICR female mice (~20 g). The mice bearing H22 tumor cells were then randomized into groups (n = 8) on the following day after the implantation. Then, the mice were injected via a tail vein (i.v.) with PBS, CH004 (10 mg/kg) or cyclophosphamide (CTX, a known anticancer drug; 20 mg/kg) once per day and for 21 days. Tumor sizes were measured every 2 days starting from the day 6 using a caliper, and tumor volume was calculated using the formula V = length × width^2 × π / 6. The body weights of mice were recorded under the same conditions. The mice were sacrificed on day 22, and the tumors were taken out and weighted.

Usually IC50 stands for the concentration that inhibits the measured activity by half. A low value points to higher potency. As to `Cn1nc(Cc2ccccc2)nc2c(=O)n(C)c(=O)nc1-2` [CH004, 3-benzyl-1,6-dimethylpyrimido[5,4-e][1,2,4]triazine-5,7(1H,6H)-dione], the IC50 in the series on HepG2 cells is around 11 µM; with HepG2 cells (Homo sapiens, HepG2, 24 h), 11.3 ± 1.3 µM. For the same molecule, the “increase in cell death” value with HEK293T cells was ~ 30%. Also, the “reduction of tumor volume or weight” value in series [1] (21-day treatment) is “more than half”. The “effect on total body weight” value in series [1] (21 days) is “did not substantially affect; also recorded: hardly affects”. Moreover, the “growth rate of tumor” value in series [1] (since day 12 of treatment, p < 0.001) is recorded as “significantly reduced”.
